Measurements: US8148391B2 (Cephalon, Inc., priority 2006, dated 2012)
Like-named read-outs stand apart in the source and are kept apart here. Blank lines part the entries; values can stand above or below the compound they belong to.

Tests used:
[1] = target: T1, baculovirus-expressed ALK (Homo sapiens, UniProt Q9UM73); experiment: ALK Kinase Assay (ELISA-type, time-resolved fluorescence); assay type: biochemical
T1 construct: host or cells: baculovirus expression system
Procedure, shortened: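 Wells were coated with phospholipase C-γ at 10 μg/mL in Tris-buffered saline. Adding 30 ng/ml enzyme started the reaction, which ran at 37° C for 15 minutes before Eu-N1 PT66 antibody detection. Percent inhibition versus log10 concentration gave IC50 by variable-slope fit.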

[2] = target: T2, c-Met (cytoplasmic domain) (Homo sapiens, UniProt P08581); experiment: c-Met Kinase Assay (same methods as for ALK, with modifications); assay type: biochemical
T2 construct: 10 ng/mL c-Met (cytoplasmic domain, Invitrogen Corporation #PV3143); purchased Invitrogen Corporation PV3143
Procedure, shortened: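 IC50 values were fitted by variable-slope sigmoidal regression of percent inhibition against log compound concentration. Phosphorylation was read with Eu-N1 PT66 antibody after a 15 min, 37 °C reaction. The reaction was initiated with 10 ng/mL c-Met cytoplasmic domain on wells coated with 10 μg/mL PLC-γ in TBS.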

[3] = ALK kinase inhibition, 1 μM ATP (Km level), read-out: ALK Activity
[4] = c-Met kinase inhibition, 1 μM ATP (Km level), read-out: cMet Activity
[5] = 1 μM ATP (Km level), 30 ng/ml ALK, 37° C., 15 minutes, read-out: ALK Activity (ALK kinase inhibition, IC50 class)
[6] = 1 μM ATP (Km level), 10 ng/mL c-Met, read-out: cMet Activity (c-Met kinase inhibition, IC50 class)
[7] = 1 μM ATP (Km level), read-out: ALK Activity (ALK Kinase Inhibition, IC50)
[8] = 1 μM ATP (Km level), read-out: cMet Activity (c-Met Kinase Inhibition, IC50)
[9] = ALK kinase inhibition, 1 μM ATP, read-out: ALK Activity
[10] = c-Met kinase inhibition, 1 μM ATP, read-out: cMet Activity

T2 sequence (P08581 956-1390 limits assumed): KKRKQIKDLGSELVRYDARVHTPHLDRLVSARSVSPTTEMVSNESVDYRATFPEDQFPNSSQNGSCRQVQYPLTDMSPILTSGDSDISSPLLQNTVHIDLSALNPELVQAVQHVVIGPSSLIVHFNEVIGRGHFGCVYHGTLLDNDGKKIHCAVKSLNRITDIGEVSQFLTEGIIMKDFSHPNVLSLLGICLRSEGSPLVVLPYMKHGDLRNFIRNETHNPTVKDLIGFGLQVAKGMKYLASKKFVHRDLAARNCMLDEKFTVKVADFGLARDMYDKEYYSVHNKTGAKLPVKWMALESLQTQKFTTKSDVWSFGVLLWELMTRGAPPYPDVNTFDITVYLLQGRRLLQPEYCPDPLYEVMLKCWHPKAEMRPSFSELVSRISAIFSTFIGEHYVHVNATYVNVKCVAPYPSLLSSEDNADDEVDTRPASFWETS
T1 sequence (Q9UM73 19-1620): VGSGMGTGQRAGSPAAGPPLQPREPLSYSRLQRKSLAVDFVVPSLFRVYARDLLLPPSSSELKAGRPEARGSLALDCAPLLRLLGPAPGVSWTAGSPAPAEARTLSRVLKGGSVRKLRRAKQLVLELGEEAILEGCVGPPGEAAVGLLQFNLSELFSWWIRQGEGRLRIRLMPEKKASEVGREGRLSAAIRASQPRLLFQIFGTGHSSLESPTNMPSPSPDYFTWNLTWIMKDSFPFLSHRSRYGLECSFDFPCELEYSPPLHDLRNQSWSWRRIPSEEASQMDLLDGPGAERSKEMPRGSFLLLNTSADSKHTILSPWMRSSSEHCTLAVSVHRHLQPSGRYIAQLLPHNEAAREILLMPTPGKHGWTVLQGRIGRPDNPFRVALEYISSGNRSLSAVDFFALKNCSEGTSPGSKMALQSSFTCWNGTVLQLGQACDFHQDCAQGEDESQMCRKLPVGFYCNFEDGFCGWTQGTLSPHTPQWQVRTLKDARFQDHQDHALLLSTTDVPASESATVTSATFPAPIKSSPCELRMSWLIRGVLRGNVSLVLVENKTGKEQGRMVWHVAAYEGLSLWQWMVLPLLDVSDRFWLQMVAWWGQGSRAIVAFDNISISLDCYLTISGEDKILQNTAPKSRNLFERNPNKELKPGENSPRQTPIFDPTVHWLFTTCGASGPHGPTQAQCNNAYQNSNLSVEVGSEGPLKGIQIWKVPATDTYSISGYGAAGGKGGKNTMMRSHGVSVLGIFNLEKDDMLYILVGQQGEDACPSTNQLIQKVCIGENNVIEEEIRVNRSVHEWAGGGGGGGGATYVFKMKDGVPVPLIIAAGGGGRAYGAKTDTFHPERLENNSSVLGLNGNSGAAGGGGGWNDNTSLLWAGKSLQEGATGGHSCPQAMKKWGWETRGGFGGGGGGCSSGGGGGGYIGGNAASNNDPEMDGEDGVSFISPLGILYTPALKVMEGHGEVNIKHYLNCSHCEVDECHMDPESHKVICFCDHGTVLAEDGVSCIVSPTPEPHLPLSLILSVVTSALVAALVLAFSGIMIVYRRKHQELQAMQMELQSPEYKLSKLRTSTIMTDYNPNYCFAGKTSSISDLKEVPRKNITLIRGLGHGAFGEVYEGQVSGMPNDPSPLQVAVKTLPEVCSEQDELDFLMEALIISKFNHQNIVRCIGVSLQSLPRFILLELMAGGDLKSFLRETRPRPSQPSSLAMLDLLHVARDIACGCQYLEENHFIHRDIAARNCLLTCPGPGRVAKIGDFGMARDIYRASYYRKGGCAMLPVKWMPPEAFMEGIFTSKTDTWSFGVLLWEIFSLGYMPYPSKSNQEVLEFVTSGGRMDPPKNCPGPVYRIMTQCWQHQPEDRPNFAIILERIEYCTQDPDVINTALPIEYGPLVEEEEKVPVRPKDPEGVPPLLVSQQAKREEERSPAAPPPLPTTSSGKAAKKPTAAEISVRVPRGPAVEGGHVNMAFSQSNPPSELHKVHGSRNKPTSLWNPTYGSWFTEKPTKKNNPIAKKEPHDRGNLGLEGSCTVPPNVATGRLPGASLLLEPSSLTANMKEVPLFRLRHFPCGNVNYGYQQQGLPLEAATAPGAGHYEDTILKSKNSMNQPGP

IC50 [1, 9]: < 0.1 µM | IC50 [2, 10]: < 0.1 µM
Compound: COCCN1C(=O)CCC(C)(C)c2ccc(Nc3ncc(Cl)c(Nc4c(F)cccc4OCC#N)n3)cc21 [Example 1521, (2-{5-Chloro-2-[1-(2-methoxy-ethyl)-5,5-dimethyl-2-oxo-2,3,4,5-tetrahydro-1H-1-benzazepin-8-ylamino]-pyrimidin-4-ylamino}-3-fluoro-phenoxy)-acetonitrile]

IC50 [1, 9]: 1 to 10 µM | IC50 [2, 10]: 0.1 to 1 µM
Compound: CNC(=O)c1cccc(F)c1Nc1nc(Nc2ccc3c(c2)NC(=O)C(NCCOC)CC3)ncc1Cl (centres unmarked) [Example 1495, 2-{5-Chloro-2-[3-(2-methoxy-ethylamino)-2-oxo-2,3,4,5-tetrahydro-1H-benzo[b]azepin-8-ylamino]-pyrimidin-4-ylamino}-3-fluoro-N-methyl-benzamide]

IC50 [1, 5]: < 0.1 µM | IC50 [2, 6]: 1 to 10 µM
Compound: COCCN1CCc2ccc(Nc3ncc(Cl)c(Nc4c(F)cccc4OC4CCOCC4)n3)cc2CC1 [Example 1282, 5-Chloro-N(4)-[2-fluoro-6-(tetrahydro-pyran-4-yloxy)-phenyl]-N(2)-[3-(2-methoxy-ethyl)-2,3,4,5-tetrahydro-1H-3-benzazepin-7-yl]-pyrimidine-2,4-diamine]

IC50 [1, 9]: 0.1 to 1 µM | IC50 [2, 10]: > 10 µM
Compound: COCCN1CCCC(C)(C)c2ccc(Nc3ncc(Cl)c(Nc4ccc(N5CCOCC5)cc4OC)n3)cc21 [Example 1601, 5-Chloro-N*2*-[1-(2-methoxy-ethyl)-5,5-dimethyl-2,3,4,5-tetrahydro-1H-benzo[b]azepin-8-yl]-N*4*-(2-methoxy-4-morpholin-4-yl-phenyl)-pyrimidine-2,4-diamine]

IC50 [1, 9]: < 0.1 µM | IC50 [2, 10]: 0.1 to 1 µM
Compound: CN1Cc2cc(Nc3ncc(Cl)c(Nc4ccccc4-c4cc[nH]n4)n3)ccc2CCC1=O [Example 1804, 8-{5-Chloro-4-[2-(1H-pyrazol-3-yl)-phenylamino]-pyrimidin-2-ylamino}-2-methyl-1,2,4,5-tetrahydro-benzo[c]azepin-3-one]

IC50 [1, 9]: 0.1 to 1 µM | IC50 [2, 10]: 0.1 to 1 µM
Compound: C#CCNC(=O)c1cccc(F)c1Nc1nc(Nc2ccc3c(c2)N(CC)CCCC3(C)C)ncc1Cl [Example 1633, 2-[5-Chloro-2-(1-ethyl-5,5-dimethyl-2,3,4,5-tetrahydro-1H-benzo[b]azepin-8-ylamino)-pyrimidin-4-ylamino]-3-fluoro-N-prop-2-ynyl-benzamide]

Second part, the compound before the results:

Compound: CNC(=O)c1ccccc1Nc1nc(Nc2ccc3c(c2)C2CCC3CN(C(C)=O)C2)ncc1Cl (centres unmarked) [Example 283, 2-[2-(10-Acetyl-10-aza-tricyclo[6.3.2.0*2,7*]trideca-2,4,6-trien-4-ylamino)-5-chloro-pyrimidin-4-ylamino]-N-methyl-benzamide]
IC50 [1, 3]: < 0.1 µM | IC50 [2, 4]: < 0.1 µM

Compound: COCCOc1ccc(Nc2nc(Nc3cc4c(cc3OC)CCN(Cc3ncco3)CC4)ncc2Cl)c(OC)c1 [Example 1174, 5-Chloro-N*4*-[2-methoxy-4-(2-methoxy-ethoxy)-phenyl]-N*2*-(8-methoxy-3-oxazol-2-ylmethyl-2,3,4,5-tetrahydro-1H-benzo[d]azepin-7-yl)-pyrimidine-2,4-diamine]
IC50 [1, 5]: < 0.1 µM | IC50 [2, 6]: > 10 µM

Compound: COc1cc2c(cc1Nc1ncc(Cl)c(Nc3cc(C#N)ccc3OC)n1)CCN(CC(=O)N(C)C)CC2 [Example 1149, 2-{7-[5-Chloro-4-(5-cyano-2-methoxy-phenylamino)-pyrimidin-2-ylamino]-8-methoxy-1,2,4,5-tetrahydro-benzo[d]azepin-3-yl}-N,N-dimethyl-acetamide]
IC50 [1, 5]: < 0.1 µM | IC50 [2, 6]: 1 to 10 µM

Compound: CCN1C(=O)CCCc2c1ccc(Nc1ncc(Cl)c(Nc3ccc(OC)cc3C(=O)OC(C)C)n1)c2OC [Example 608, 2-[5-Chloro-2-(1-ethyl-6-methoxy-2-oxo-2,3,4,5-tetrahydro-1H-benzo[b]azepin-7-ylamino)-pyrimidin-4-ylamino]-5-methoxy-benzoic acid isopropyl ester]
IC50 [1, 7]: 1 to 10 µM | IC50 [2, 8]: > 10 µM

Compound: COc1cc2c(cc1Nc1ncc(Cl)c(N[C@H]3[C@@H](C(N)=O)[C@@H]4C=C[C@H]3C4)n1)CCN(C(C)C)CC2 [Example 776, (1S,2S,3R,4R)-3-[5-Chloro-2-(3-isopropyl-8-methoxy-2,3,4,5-tetrahydro-1H-benzo[d]azepin-7-ylamino)-pyrimidin-4-ylamino]-bicyclo[2.2.1]hept-5-ene-2-carboxylic acid amide]
IC50 [1, 7]: < 0.1 µM | IC50 [2, 8]: > 10 µM

Compound: CC(C)S(=O)(=O)c1ccccc1Nc1nc(Nc2ccc3c(c2)CCC(O)CC3)ncc1Cl (centres unmarked) [Example 1037, 2-{5-Chloro-4-[2-(propane-2-sulfonyl)-phenylamino]-pyrimidin-2-ylamino}-6,7,8,9-tetrahydro-5H-benzocyclohepten-7-ol]
IC50 [1, 5]: < 0.1 µM | IC50 [2, 6]: 0.1 to 1 µM

Compound: CNC(=O)c1ccccc1Nc1nc(Nc2c(OC)ccc3c2CCC(N2CCOCC2)CC3)ncc1Cl (centres unmarked) [Example 1073, 2-[5-Chloro-2-(2-methoxy-7-morpholin-4-yl-6,7,8,9-tetrahydro-5H-benzocyclohepten-1-ylamino)-pyrimidin-4-ylamino]-N-methyl-benzamide]
IC50 [1, 5]: 0.1 to 1 µM | IC50 [2, 6]: > 10 µM

Compound: COCCN1C2CCC1c1cc(Nc3ncc(Cl)c(Nc4ccccc4NS(C)(=O)=O)n3)ccc1C2 (centres unmarked) [Example 76, N-(2-{5-Chloro-2-[12-(2-methoxy-ethyl)-12-aza-tricyclo[7.2.1.0*2,7*]dodeca-2(7),3,5-trien-4-ylamino]-pyrimidin-4-ylamino}-phenyl)-methanesulfonamide]
IC50 [1, 3]: < 0.1 µM | IC50 [2, 4]: 0.1 to 1 µM

Compound: COc1cc2c(cc1Nc1ncc(C(F)(F)F)c(N[C@H]3[C@@H](C(N)=O)[C@@H]4C=C[C@H]3C4)n1)CCN(CC(=O)N(C)C)CC2 [Example 933, (1S,2S,3R,4R)-3-[2-(3-Dimethylcarbamoylmethyl-8-methoxy-2,3,4,5-tetrahydro-1H-3-benzazepin-7-ylamino)-5-trifluoromethyl-pyrimidin-4-ylamino]-bicyclo[2.2.1]hept-5-ene-2-carboxylic acid amide]
IC50 [1, 7]: < 0.1 µM | IC50 [2, 8]: 1 to 10 µM

Compound: COc1c(Nc2ncc(Cl)c(Nc3ccccc3S(=O)(=O)C(C)C)n2)ccc2c1CCCC(NCCO)C2 (centres unmarked) [Example 961, 2-(2-{5-Chloro-4-[2-(propane-2-sulfonyl)-phenylamino]-pyrimidin-2-ylamino}-1-methoxy-6,7,8,9-tetrahydro-5H-benzocyclohepten-6-ylamino)-ethanol]
IC50 [1, 7]: < 0.1 µM | IC50 [2, 8]: > 10 µM

Compound: COc1cc2c(cc1Nc1ncc(Cl)c(Nc3ccccc3S(=O)(=O)N(C)C)n1)CCN(C(=O)C(C)(C)N)CC2 [Example 1207, 2-{2-[3-(2-Amino-2-methyl-propionyl)-8-methoxy-2,3,4,5-tetrahydro-1H-benzo[d]azepin-7-ylamino]-5-chloro-pyrimidin-4-ylamino}-N,N-dimethyl-benzenesulfonamide]
IC50 [1, 5]: < 0.1 µM | IC50 [2, 6]: 1 to 10 µM

Compound: CS(=O)(=O)Nc1ccccc1Nc1nc(Nc2ccc3c(c2)CNCCS3(=O)=O)ncc1Cl [Example 523, N-{2-[5-Chloro-2(5,5dioxo-6,7,8,9-tetrahydro-5H-5lambda*6*-thia-8-aza-benzocyclohepten-2-ylamino)-pyrimidin-4-ylamino]-phenyl}-methanesulfonamide]
IC50 [1, 7]: 0.1 to 1 µM | IC50 [2, 8]: 1 to 10 µM

Compound: COc1ccc2c(c1Nc1ncc(Cl)c(Nc3ccccc3-n3cccn3)n1)CCC(NCC(F)F)CC2 (centres unmarked) [Example 1076, 5-Chloro-N*2*-[7-(2,2-difluoro-ethylamino)-2-methoxy-6,7,8,9-tetrahydro-5H-benzocyclohepten-1-yl]-N*4*-(2-pyrazol-1-yl-phenyl)-pyrimidine-2,4-diamine]
IC50 [1, 5]: 0.1 to 1 µM | IC50 [2, 6]: > 10 µM
